Measurements taken from US20250129087A1, “SALT CRYSTALS” (INTRA-CELLULAR THERAPIES, INC., priority 2022, published 2025).

Key:
[1] = pH of the filtrated solutions (pH indication paper); assay type: physicochemical; conditions: pH of the filtrated solution
Method: (§1) Samples are filtered and diluted (in a mixture of acetonitrile/water (1/1)) for LC analysis. Solubilities are calculated with the use of a calibration line. Furthermore, the pH values of the filtrated solutions are determined using pH indication paper.

[2] = Aqueous solubility of the salt crystals (shaking in water for 24 hours, LC analysis); assay type: physicochemical; conditions: appearance of the sample after shaking in water for 24 hours (Slurry or Clear)
Method: as §1

CN1C(=O)c2c(nn(Cc3ccc(-c4cccc(F)n4)cc3)c2Nc2ccccc2)N2C1=N[C@@H]1CCC[C@@H]12.Cl [HCl Salt 4]
pH [1]: 4

CN1C(=O)c2c(nn(Cc3ccc(-c4cccc(F)n4)cc3)c2Nc2ccccc2)N2C1=N[C@@H]1CCC[C@@H]12.O=C(O)C(O)c1ccccc1 [Mandelate Salt 1]
pH [1]: 2

CN1C(=O)c2c(nn(Cc3ccc(-c4cccc(F)n4)cc3)c2Nc2ccccc2)N2C1=N[C@@H]1CCC[C@@H]12.CN1C(=O)c2c(nn(Cc3ccc(-c4cccc(F)n4)cc3)c2Nc2ccccc2)N2C1=N[C@@H]1CCC[C@@H]12.O=C(O)/C=C/C(=O)O [Fumarate Salt 1]
pH [1]: 2

CN1C(=O)c2c(nn(Cc3ccc(-c4cccc(F)n4)cc3)c2Nc2ccccc2)N2C1=N[C@@H]1CCC[C@@H]12.O=C(O)c1ccccc1O [Salicylate Salt 1]
pH [1]: 5

CN1C(=O)c2c(nn(Cc3ccc(-c4cccc(F)n4)cc3)c2Nc2ccccc2)N2C1=N[C@@H]1CCC[C@@H]12.CN1C(=O)c2c(nn(Cc3ccc(-c4cccc(F)n4)cc3)c2Nc2ccccc2)N2C1=N[C@@H]1CCC[C@@H]12.O=C(O)CCCCC(=O)O [Adipate Salt 2]
pH [1]: 4-5

CN1C(=O)c2c(nn(Cc3ccc(-c4cccc(F)n4)cc3)c2Nc2ccccc2)N2C1=N[C@@H]1CCC[C@@H]12.O=C(O)c1ccc2ccccc2c1O [Xinafoate Salt 3]
pH [1]: 7

CC1(C)C2CCC1(CS(=O)(=O)O)C(=O)C2.CN1C(=O)c2c(nn(Cc3ccc(-c4cccc(F)n4)cc3)c2Nc2ccccc2)N2C1=N[C@@H]1CCC[C@@H]12 [Camsylate Salt 2]
pH [1]: 1

CN1C(=O)c2c(nn(Cc3ccc(-c4cccc(F)n4)cc3)c2Nc2ccccc2)N2C1=N[C@@H]1CCC[C@@H]12.O=C(O)C(=O)O [Oxalate Salt 3]
pH [1]: 1

CC(O)C(=O)O.CN1C(=O)c2c(nn(Cc3ccc(-c4cccc(F)n4)cc3)c2Nc2ccccc2)N2C1=N[C@@H]1CCC[C@@H]12 [Lactate Salt 1]
pH [1]: 4-5

CN1C(=O)c2c(nn(Cc3ccc(-c4cccc(F)n4)cc3)c2Nc2ccccc2)N2C1=N[C@@H]1CCC[C@@H]12.O=C(O)c1ccncc1 [Isonicotinate Salt 1]
pH [1]: 5

CN1C(=O)c2c(nn(Cc3ccc(-c4cccc(F)n4)cc3)c2Nc2ccccc2)N2C1=N[C@@H]1CCC[C@@H]12.O=C(O)CCCCC(=O)O [Adipate Salt 1]
pH [1]: 4

CN1C(=O)c2c(nn(Cc3ccc(-c4cccc(F)n4)cc3)c2Nc2ccccc2)N2C1=N[C@@H]1CCC[C@@H]12.O=C(O)c1ccc2ccccc2c1O [Xinafoate Salt 2]
pH [1]: 7

CN1C(=O)c2c(nn(Cc3ccc(-c4cccc(F)n4)cc3)c2Nc2ccccc2)N2C1=N[C@@H]1CCC[C@@H]12.O=C(O)c1ccc2ccccc2c1O [Xinafoate Salt 1]
pH [1]: 7

CN1C(=O)c2c(nn(Cc3ccc(-c4cccc(F)n4)cc3)c2Nc2ccccc2)N2C1=N[C@@H]1CCC[C@@H]12.O=C(O)CCCCC(=O)O [Adipate Salt 3]
pH [1]: 4-5

CN1C(=O)c2c(nn(Cc3ccc(-c4cccc(F)n4)cc3)c2Nc2ccccc2)N2C1=N[C@@H]1CCC[C@@H]12.O=C(O)CCC(=O)C(=O)O [Oxo-glutarate Salt 1]
pH [1]: 3

CN1C(=O)c2c(nn(Cc3ccc(-c4cccc(F)n4)cc3)c2Nc2ccccc2)N2C1=N[C@@H]1CCC[C@@H]12.O=C(O)C[C@H](O)C(=O)O [Malate Salt 1]
pH [1]: 4

CCCCCCCCCCCCCCCC(=O)O.CN1C(=O)c2c(nn(Cc3ccc(-c4cccc(F)n4)cc3)c2Nc2ccccc2)N2C1=N[C@@H]1CCC[C@@H]12 [Palmitate Salt 1]
pH [1]: 5-6

CN1C(=O)c2c(nn(Cc3ccc(-c4cccc(F)n4)cc3)c2Nc2ccccc2)N2C1=N[C@@H]1CCC[C@@H]12.CS(=O)(=O)O [Mesylate Salt 1]
pH [1]: 5

CN1C(=O)c2c(nn(Cc3ccc(-c4cccc(F)n4)cc3)c2Nc2ccccc2)N2C1=N[C@@H]1CCC[C@@H]12.Cc1ccc(S(=O)(=O)O)cc1 [Tosylate Salt 1]
pH [1]: 1

CN1C(=O)c2c(nn(Cc3ccc(-c4cccc(F)n4)cc3)c2Nc2ccccc2)N2C1=N[C@@H]1CCC[C@@H]12.O=P(O)(O)O [Phosphate Salt Control]
pH [1]: 5

CC(=O)Nc1ccc(C(=O)O)cc1.CN1C(=O)c2c(nn(Cc3ccc(-c4cccc(F)n4)cc3)c2Nc2ccccc2)N2C1=N[C@@H]1CCC[C@@H]12 [Acetamido Benzoate Salt 2]
pH ([1]; listed as 4-acetamido-benzoate Salt 2): 4

CN1C(=O)c2c(nn(Cc3ccc(-c4cccc(F)n4)cc3)c2Nc2ccccc2)N2C1=N[C@@H]1CCC[C@@H]12.Cl [HCl Salt 3]
pH [1]: 3

CN1C(=O)c2c(nn(Cc3ccc(-c4cccc(F)n4)cc3)c2Nc2ccccc2)N2C1=N[C@@H]1CCC[C@@H]12.Cl [HCl Salt 2]
pH [1]: 4-5

CN1C(=O)c2c(nn(Cc3ccc(-c4cccc(F)n4)cc3)c2Nc2ccccc2)N2C1=N[C@@H]1CCC[C@@H]12.O=S(=O)(O)O [Sulfate Salt 1]
pH [1]: 1

CN1C(=O)c2c(nn(Cc3ccc(-c4cccc(F)n4)cc3)c2Nc2ccccc2)N2C1=N[C@@H]1CCC[C@@H]12.O=C(O)C(F)(F)F [Trifluoroacetate Salt 1]
pH [1]: 7

CN1C(=O)c2c(nn(Cc3ccc(-c4cccc(F)n4)cc3)c2Nc2ccccc2)N2C1=N[C@@H]1CCC[C@@H]12.O=C(O)C(=O)O [Oxalate Salt 2]
pH [1]: 1

CN1C(=O)c2c(nn(Cc3ccc(-c4cccc(F)n4)cc3)c2Nc2ccccc2)N2C1=N[C@@H]1CCC[C@@H]12.O=C(O)c1ccccc1 [Benzoate Salt 1]
pH [1]: 5

CN1C(=O)c2c(nn(Cc3ccc(-c4cccc(F)n4)cc3)c2Nc2ccccc2)N2C1=N[C@@H]1CCC[C@@H]12.O=C(O)c1ccccc1O [Salicylate Salt 2]
pH [1]: 4-5

CN1C(=O)c2c(nn(Cc3ccc(-c4cccc(F)n4)cc3)c2Nc2ccccc2)N2C1=N[C@@H]1CCC[C@@H]12.Nc1ccc(C(=O)O)c(O)c1 [Aminosalicylate Salt 1]
pH [1]: 5 | Appearance [2]: Slurry

CN1C(=O)c2c(nn(Cc3ccc(-c4cccc(F)n4)cc3)c2Nc2ccccc2)N2C1=N[C@@H]1CCC[C@@H]12.O=C(O)[C@@H](O)[C@H](O)[C@H](O)[C@@H](O)C(=O)O [Galactarate Salt 1]
pH [1]: 5

CN1C(=O)c2c(nn(Cc3ccc(-c4cccc(F)n4)cc3)c2Nc2ccccc2)N2C1=N[C@@H]1CCC[C@@H]12.O=C(O)C(O)c1ccccc1 [Mandelate Salt 2]
pH [1]: 4

CC(=O)Nc1ccc(C(=O)O)cc1.CN1C(=O)c2c(nn(Cc3ccc(-c4cccc(F)n4)cc3)c2Nc2ccccc2)N2C1=N[C@@H]1CCC[C@@H]12 [Acetamido Benzoate Salt 1]
pH ([1]; listed as 4-acetamido-benzoate Salt 1): 5

CN1C(=O)c2c(nn(Cc3ccc(-c4cccc(F)n4)cc3)c2Nc2ccccc2)N2C1=N[C@@H]1CCC[C@@H]12.O=S(=O)(O)c1cccc2c(S(=O)(=O)O)cccc12 [Napadisylate Salt 1]
pH [1]: 1

CN1C(=O)c2c(nn(Cc3ccc(-c4cccc(F)n4)cc3)c2Nc2ccccc2)N2C1=N[C@@H]1CCC[C@@H]12.O=C(O)C(O)C(O)C(=O)O [Tartrate Salt 1]
pH [1]: 4-5

CN1C(=O)c2c(nn(Cc3ccc(-c4cccc(F)n4)cc3)c2Nc2ccccc2)N2C1=N[C@@H]1CCC[C@@H]12.O=C(O)CCC(=O)O [Succinate Salt 1]
pH [1]: 4

CC1(C)C2CCC1(CS(=O)(=O)O)C(=O)C2.CN1C(=O)c2c(nn(Cc3ccc(-c4cccc(F)n4)cc3)c2Nc2ccccc2)N2C1=N[C@@H]1CCC[C@@H]12 [Camsylate Salt 1]
pH [1]: 1

CCCCCCCC(=O)O.CN1C(=O)c2c(nn(Cc3ccc(-c4cccc(F)n4)cc3)c2Nc2ccccc2)N2C1=N[C@@H]1CCC[C@@H]12 [Caprylate Salt 1]
pH [1]: 5

CN1C(=O)c2c(nn(Cc3ccc(-c4cccc(F)n4)cc3)c2Nc2ccccc2)N2C1=N[C@@H]1CCC[C@@H]12.O=C(O)c1cccnc1 [Nicotinate Salt 1]
pH [1]: 5

CN1C(=O)c2c(nn(Cc3ccc(-c4cccc(F)n4)cc3)c2Nc2ccccc2)N2C1=N[C@@H]1CCC[C@@H]12.Cl [HCl Salt 1]
pH [1]: 4

CN1C(=O)c2c(nn(Cc3ccc(-c4cccc(F)n4)cc3)c2Nc2ccccc2)N2C1=N[C@@H]1CCC[C@@H]12.Cc1ccc(S(=O)(=O)O)cc1 [Tosylate Salt 2]
pH [1]: 5

CN1C(=O)c2c(nn(Cc3ccc(-c4cccc(F)n4)cc3)c2Nc2ccccc2)N2C1=N[C@@H]1CCC[C@@H]12.O=S(=O)(O)CCS(=O)(=O)O [Edisylate Salt 1]
pH [1]: 1

CN1C(=O)c2c(nn(Cc3ccc(-c4cccc(F)n4)cc3)c2Nc2ccccc2)N2C1=N[C@@H]1CCC[C@@H]12.O=C(O)c1cc(=O)[nH]c(=O)[nH]1.O=C(O)c1cc(=O)[nH]c(=O)[nH]1 [Orotate Salt 1]
pH [1]: 5

CN1C(=O)c2c(nn(Cc3ccc(-c4cccc(F)n4)cc3)c2Nc2ccccc2)N2C1=N[C@@H]1CCC[C@@H]12.O=S(=O)(O)c1ccccc1 [Besylate Salt 1]
pH [1]: 1

CCCCCCCCCCCC(=O)O.CN1C(=O)c2c(nn(Cc3ccc(-c4cccc(F)n4)cc3)c2Nc2ccccc2)N2C1=N[C@@H]1CCC[C@@H]12 [Laurate Salt 1]
pH [1]: 5

CCC(=O)O.CN1C(=O)c2c(nn(Cc3ccc(-c4cccc(F)n4)cc3)c2Nc2ccccc2)N2C1=N[C@@H]1CCC[C@@H]12 [Propionate Salt 1]
pH [1]: 5

CN1C(=O)c2c(nn(Cc3ccc(-c4cccc(F)n4)cc3)c2Nc2ccccc2)N2C1=N[C@@H]1CCC[C@@H]12.O=C(O)C(Cl)Cl [Dichloroacetate Salt 1]
pH [1]: 4-5

CCS(=O)(=O)O.CN1C(=O)c2c(nn(Cc3ccc(-c4cccc(F)n4)cc3)c2Nc2ccccc2)N2C1=N[C@@H]1CCC[C@@H]12 [Esylate Salt 1]
pH [1]: 5

CN1C(=O)c2c(nn(Cc3ccc(-c4cccc(F)n4)cc3)c2Nc2ccccc2)N2C1=N[C@@H]1CCC[C@@H]12.O=C(O)C(=O)O [Oxalate Salt 1]
pH [1]: 4

CN1C(=O)c2c(nn(Cc3ccc(-c4cccc(F)n4)cc3)c2Nc2ccccc2)N2C1=N[C@@H]1CCC[C@@H]12.O=C(O)CCC(=O)O [Succinate Salt 2]
pH [1]: 4

CCCCCC(=O)O.CN1C(=O)c2c(nn(Cc3ccc(-c4cccc(F)n4)cc3)c2Nc2ccccc2)N2C1=N[C@@H]1CCC[C@@H]12 [Caproate Salt 1]
pH [1]: 5
